ChEMBL document CHEMBL4118133, “Inhibitory effects of methyl-3,5-di-O-caffeoyl-epi-quinate on RANKL-induced osteoclast differentiation” (Bioorg Med Chem Lett, 2018)
Calls of active or inactive are those of the source. The rule behind the calls is not given here.

Columns and labels:
BMDM [1] = assay: Inhibition of M-CSF/RANKL-induced osteoclast differentiation in ICR mouse BMDM assessed as downregulation of Nfatc1 mRNA expression at 5 uM by qRT-PCR method; type: functional, cell-based
Osteoclast = assay: Effect on bone-resorbing function of osteoclast derived from M-CSF/RANKL-induced ICR mouse BMDM assessed as change in size of resorption pit area at 5 uM after 2 days by hematoxylin staining-based assay; type: functional, cell-based
BMDM [2] = assay: Inhibition of M-CSF/RANKL-induced osteoclast differentiation in ICR mouse BMDM assessed as decrease in number of cells with nuclear Nfatc1 at 5 uM by rhodamine-conjugated phalloidin/DAPI staining-based immunofluorescence method; type: functional, cell-based
BMDM [3] = assay: Inhibition of M-CSF/RANKL-induced osteoclast differentiation in ICR mouse BMDM assessed as downregulation of Ctsk mRNA expression at 5 uM by qRT-PCR method; type: functional, cell-based
BMDM [4] = assay: Inhibition of M-CSF/RANKL-induced osteoclast differentiation in ICR mouse BMDM at 1 uM after 4 days by TRAP staining method relative to control; type: functional; details: 96 h
[5] = target: RAC-alpha serine/threonine-protein kinase (Mus musculus) (UniProt P31750); assay: Inhibition of RANKL-induced AKT phosphorylation in ICR mouse BMDM at 5 uM preincubated for 1 hr followed by RANKL stimulation measured after 30 mins by Western blot method; type: cell-based
[6] = target: MAP kinase p38 (Mus musculus) (UniProt P47811+O08911+Q9WUI1+Q9Z1B7); assay: Inhibition of RANKL-induced p38 phosphorylation in ICR mouse BMDM at 5 uM preincubated for 1 hr followed by RANKL stimulation measured after 5 to 30 mins by Western blot method; type: cell-based
BMDM [7] = assay: Inhibition of RANKL-mediated decrease in Mafb mRNA expression in ICR mouse BMDM at 5 uM by qRT-PCR method; type: functional, cell-based
BMDM [8] = assay: Inhibition of M-CSF/RANKL-induced osteoclast differentiation in ICR mouse BMDM assessed as downregulation of Acp5 mRNA expression at 5 uM by qRT-PCR method; type: functional, cell-based
BMDM [9] = assay: Inhibition of RANKL-induced ERK phosphorylation in ICR mouse BMDM at 5 uM preincubated for 1 hr followed by RANKL stimulation measured after 5 to 30 mins by Western blot method; type: cell-based
BMDM [10] = assay: Growth inhibition of ICR mouse BMDM up to 10 uM after 3 days by MTT assay; type: cell-based; details: 72 h
BMDM [11] = assay: Inhibition of RANKL-mediated decrease in Bcl6 mRNA expression in ICR mouse BMDM at 5 uM by qRT-PCR method; type: functional, cell-based
BMDM [12] = assay: Inhibition of RANKL-mediated decrease in Irf8 mRNA expression in ICR mouse BMDM at 5 uM by qRT-PCR method; type: functional, cell-based
BMDM [13] = assay: Inhibition of M-CSF/RANKL-induced osteoclast differentiation in ICR mouse BMDM assessed as downregulation of Dcstamp mRNA expression at 5 uM by qRT-PCR method; type: functional, cell-based
BMDM [14] = assay: Inhibition of M-CSF/RANKL-induced osteoclast differentiation in ICR mouse BMDM assessed as downregulation of Nfatc1 expression at 5 uM after 3 days by Western blot method; type: functional, cell-based
BMDM [15] = assay: Inhibition of M-CSF/RANKL-induced osteoclast differentiation in ICR mouse BMDM at 5 to 10 uM after 4 days by TRAP staining method; type: functional, cell-based

RAC-alpha serine/threonine-protein kinase (Mus musculus), sequence (P31750 whole entry): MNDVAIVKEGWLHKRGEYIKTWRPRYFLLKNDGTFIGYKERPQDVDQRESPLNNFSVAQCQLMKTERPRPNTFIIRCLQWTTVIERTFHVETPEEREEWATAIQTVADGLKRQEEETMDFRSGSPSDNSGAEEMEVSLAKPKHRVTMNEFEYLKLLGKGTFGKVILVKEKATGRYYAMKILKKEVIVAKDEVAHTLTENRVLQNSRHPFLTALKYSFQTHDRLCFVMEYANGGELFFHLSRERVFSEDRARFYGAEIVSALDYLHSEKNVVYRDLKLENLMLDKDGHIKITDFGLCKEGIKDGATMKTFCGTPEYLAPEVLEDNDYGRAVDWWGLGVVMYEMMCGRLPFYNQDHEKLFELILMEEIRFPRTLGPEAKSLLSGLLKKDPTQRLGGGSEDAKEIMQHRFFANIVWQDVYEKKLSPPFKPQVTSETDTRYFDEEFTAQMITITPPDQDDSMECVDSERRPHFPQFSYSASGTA

SMILES: COC(=O)[C@]1(O)C[C@@H](OC(=O)/C=C/c2ccc(O)c(O)c2)[C@H](O)[C@H](OC(=O)/C=C/c2ccc(O)c(O)c2)C1
- inhibition (BMDM [1]): Active
- Activity (Osteoclast): inactive
- inhibition (BMDM [2]): Active
- inhibition (BMDM [3]): Active
- inhibition at 1 µM (BMDM [4]): 78%
- inhibition [5]: Active
- inhibition [6]: Active
- inhibition (BMDM [7]): Active
- inhibition (BMDM [8]): Active
- inhibition (BMDM [9]): Active
- growth inhibition (GI) (BMDM [10]): Non-Toxic
- inhibition (BMDM [11]): Active
- inhibition (BMDM [12]): Active
- inhibition (BMDM [13]): Active
- inhibition (BMDM [14]): Active
- inhibition (BMDM [15]): Active
